Laboratory results published in PMC3726482 (PLoS ONE, 2013).

Columns and labels:
Format in all cases: biochemical
EF (edema factor) = target: T1, EF (edema factor) (Bacillus anthracis, UniProt P40136); conditions: read-out: EF / KM
T1 construct: gene cya

CyaA-N [1] = target: T2, CyaA-N (Bordetella pertussis, UniProt P0DKX7); conditions: read-out: CyaA-N / KM
T2 construct: gene cya; catalytic domain, amino acids 1 to 373; plasmid pExCyaA-N; purified from E. coli; assayed with calf brain calmodulin; with Calmodulin
T2 sequence (P0DKX7 whole entry, looked up, the tested form may be a part): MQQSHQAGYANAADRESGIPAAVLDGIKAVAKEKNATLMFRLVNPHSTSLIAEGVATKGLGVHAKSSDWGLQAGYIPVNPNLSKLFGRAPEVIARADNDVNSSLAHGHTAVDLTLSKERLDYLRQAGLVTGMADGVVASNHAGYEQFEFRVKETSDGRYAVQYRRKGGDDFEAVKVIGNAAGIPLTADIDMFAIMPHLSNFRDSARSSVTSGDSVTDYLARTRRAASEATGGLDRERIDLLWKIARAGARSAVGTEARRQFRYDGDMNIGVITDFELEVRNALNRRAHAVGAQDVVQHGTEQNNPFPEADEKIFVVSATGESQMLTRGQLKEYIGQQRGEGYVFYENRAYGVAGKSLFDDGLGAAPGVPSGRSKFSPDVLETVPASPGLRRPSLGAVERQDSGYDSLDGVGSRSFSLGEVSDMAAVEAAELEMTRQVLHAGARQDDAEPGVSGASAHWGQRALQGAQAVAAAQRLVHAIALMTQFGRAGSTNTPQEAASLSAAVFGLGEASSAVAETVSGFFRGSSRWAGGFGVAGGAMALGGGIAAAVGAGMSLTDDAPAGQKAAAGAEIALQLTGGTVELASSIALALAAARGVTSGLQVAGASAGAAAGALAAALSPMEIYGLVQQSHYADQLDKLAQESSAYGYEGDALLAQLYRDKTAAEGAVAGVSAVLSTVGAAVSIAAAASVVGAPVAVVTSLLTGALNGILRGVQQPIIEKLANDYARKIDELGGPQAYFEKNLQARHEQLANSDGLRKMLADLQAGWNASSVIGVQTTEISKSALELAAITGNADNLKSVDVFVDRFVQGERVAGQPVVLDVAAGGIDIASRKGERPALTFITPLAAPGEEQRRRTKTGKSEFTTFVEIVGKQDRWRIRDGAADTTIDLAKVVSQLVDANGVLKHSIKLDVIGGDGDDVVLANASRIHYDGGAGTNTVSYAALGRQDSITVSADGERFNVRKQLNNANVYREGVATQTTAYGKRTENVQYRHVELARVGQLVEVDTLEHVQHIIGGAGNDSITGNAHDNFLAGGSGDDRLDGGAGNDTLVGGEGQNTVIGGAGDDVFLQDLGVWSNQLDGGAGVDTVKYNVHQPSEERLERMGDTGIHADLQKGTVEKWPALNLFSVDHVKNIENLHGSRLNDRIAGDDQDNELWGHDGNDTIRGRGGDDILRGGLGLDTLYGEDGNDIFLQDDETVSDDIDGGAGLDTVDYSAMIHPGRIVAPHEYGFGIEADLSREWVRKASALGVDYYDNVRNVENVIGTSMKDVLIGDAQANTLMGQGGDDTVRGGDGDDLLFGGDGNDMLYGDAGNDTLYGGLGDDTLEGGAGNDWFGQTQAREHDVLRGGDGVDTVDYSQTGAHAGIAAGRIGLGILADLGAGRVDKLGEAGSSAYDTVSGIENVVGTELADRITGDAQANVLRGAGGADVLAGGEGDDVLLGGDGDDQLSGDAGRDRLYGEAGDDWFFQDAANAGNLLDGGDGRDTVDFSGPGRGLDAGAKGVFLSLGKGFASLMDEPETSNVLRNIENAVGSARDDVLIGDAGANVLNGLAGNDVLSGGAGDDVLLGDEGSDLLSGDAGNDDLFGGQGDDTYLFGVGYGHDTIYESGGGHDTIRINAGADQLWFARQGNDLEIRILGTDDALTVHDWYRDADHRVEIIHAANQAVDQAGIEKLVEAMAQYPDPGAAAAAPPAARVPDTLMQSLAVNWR

CyaA-N [2] = target: T2, CyaA-N

T1 sequence (P40136 whole entry, looked up): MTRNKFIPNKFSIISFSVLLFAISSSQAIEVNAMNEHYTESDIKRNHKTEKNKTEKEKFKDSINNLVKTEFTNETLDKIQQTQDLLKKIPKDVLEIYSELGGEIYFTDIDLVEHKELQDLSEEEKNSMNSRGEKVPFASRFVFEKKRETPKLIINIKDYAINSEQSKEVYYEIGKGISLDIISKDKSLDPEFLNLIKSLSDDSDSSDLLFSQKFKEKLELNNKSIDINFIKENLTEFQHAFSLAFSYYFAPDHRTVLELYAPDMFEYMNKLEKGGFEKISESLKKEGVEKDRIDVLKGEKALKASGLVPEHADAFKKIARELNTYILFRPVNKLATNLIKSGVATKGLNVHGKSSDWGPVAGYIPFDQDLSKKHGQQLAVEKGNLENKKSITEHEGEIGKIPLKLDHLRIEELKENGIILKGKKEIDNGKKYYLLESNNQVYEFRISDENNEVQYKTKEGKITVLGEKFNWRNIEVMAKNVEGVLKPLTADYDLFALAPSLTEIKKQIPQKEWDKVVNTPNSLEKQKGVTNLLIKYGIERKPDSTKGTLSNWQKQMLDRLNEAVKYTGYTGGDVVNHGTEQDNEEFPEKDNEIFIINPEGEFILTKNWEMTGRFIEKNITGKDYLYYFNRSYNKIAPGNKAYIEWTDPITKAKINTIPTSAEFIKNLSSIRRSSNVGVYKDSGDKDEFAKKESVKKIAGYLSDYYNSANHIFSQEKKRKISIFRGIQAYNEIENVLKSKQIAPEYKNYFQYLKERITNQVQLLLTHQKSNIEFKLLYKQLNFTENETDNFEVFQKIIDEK

SMILES	Km (EF (edema factor))	Km (CyaA-N [1])	CyaA-N / KM (CyaA-N [2])
Nc1ncnc2c1ncn2[C@@H]1O[C@H](COP(=O)(O)OP(=O)(O)OP(=O)(O)O)[C@@H](O)[C@H]1O [ATP]	78.1 ± 8.7 µM	171 ± 22.8 µM	
Nc1ccn([C@@H]2O[C@H](COP(=O)(O)OP(=O)(O)OP(=O)(O)O)[C@@H](O)[C@H]2O)c(=O)n1 [CTP]	367 ± 116 µM	475 ± 139 µM	
Nc1nc2c(ncn2[C@@H]2O[C@H](COP(=O)(O)OP(=O)(O)OP(=O)(O)O)[C@@H](O)[C@H]2O)c(=O)[nH]1 [GTP]	85 ± 13 µM	191 ± 25 µM	
O=P(O)(O)OP(=O)(O)OP(=O)(O)OC[C@H]1O[C@@H](n2cnc3c(O)ncnc32)[C@H](O)[C@@H]1O [ITP]	507 ± 108 µM	329 ± 44 µM	
Cc1cn([C@H]2C[C@H](O)[C@@H](COP(=O)(O)OP(=O)(O)OP(=O)(O)O)O2)c(=O)[nH]c1=O [TTP]		19 ± 5 µM	1332 ± 365 µM
O=c1ccn([C@@H]2O[C@H](COP(=O)(O)OP(=O)(O)OP(=O)(O)O)[C@@H](O)[C@H]2O)c(=O)[nH]1 [UTP]	792 ± 299 µM	599 ± 59 µM	
O=c1[nH]c(=O)c2ncn([C@@H]3O[C@H](COP(=O)(O)OP(=O)(O)OP(=O)(O)O)[C@@H](O)[C@H]3O)c2[nH]1 [XTP]		37 ± 7 µM	309 ± 57 µM
